The values that follow come from US20200399238A1, “THERAPEUTIC AURONES” (MIDDLE TENNESSEE STATE UNIVERSITY, priority 2016, published 2020).

The subject of assay [1] is Trypanosoma cruzi Tulahuen cells expressing beta-galactosidase. The assay is described as follows: T. cruzi intracellular assay (beta-galactosidase, L6 host cells). The conditions noted are these: for IC50: Trypanosoma cruzi, TULAHUEN; for Selectivity L6/TC-I: Table 3A.
Experimental: Trypanosoma cruzi Tulahuen cells expressing beta-galactosidase (Buckner et al., Antimicrob. Agents Chemother. 40 (1996) 2592-2597) were cultured using the L6 cell line as a host cell. Adherent L6 cultures were infected with freshly burst T. cruzi trypomastigotes. Approximately 4-6 days later freshly burst trypomastigotes were collected and used to maintain cultures For assays, trypomastigotes were centrifuged to a loose pellet and incubated for 3 hours to allow the trypomastigote forms to swim out of the pellet. Cells were adjusted for addition to intracellular or extracellular assays. […] For intracellular assays, cells were added to adherent L6 cells using an infection ratio of 1:1 and immediately treated with compounds. At 96 hours incubations, a solution containing chlorophenol-red-B-D-beta-galactopyranosidase (Sigma) and a lysis agent were added. After an additional 2 hour incubation, a spectrophotometer was used to quantify the resulting color change (or lack thereof) which was used to calculate inhibition.
The percentage of cell inhibition was calculated using the formula: Percent Inhibition=1−((Treated Sample value−Medium only value)/(Untreated value−Medium only value))×100. Results are expressed as the mean of two or more independent trials.
The test system of assay [2] is rat skeletal muscle cell line, L6. The assay can be described thus: cells. The format is cell-based. The protocol: Cells were maintained in high glucose DMEM obtained from HyClone Laboratories (Logan, Utah) and supplemented with FCS and P/S at the same concentrations used for parasite culture. Cells were passaged every 3-4 days and maintained in a 37° C. humidified incubator in an atmosphere of 5% CO2. For assays. cells were detached, counted using a hemocytometer, and adjusted using fresh media to deliver 5×10^3 cells per well (90 μL) in black walled, flat clear bottom 96-well microtiter plates. After 3 h incubation for attachment, compounds diluted in culture medium were added (10 μL) to triplicate wells. Positive controls (cells treated with podophyllotoxin (Sigma, St. Louis, Mo.)), negative controls (untreated cells), solvent controls (DMSO) and media blanks were included on each plate. Following incubation for 71.5 h, 11 μL of PrestoBlue was added into each well.

Assay [3] has as its system Trypanosoma brucei brucei 427 cells. The assay is described as follows: T. brucei culture and assay (PrestoBlue). The format is cell-based.
The subject of assay [4] is Leishmania amazonensis promastigotes expressing beta-lactamase. The assay can be described thus: microbe, parasite or virus in culture. Format: cell-based. The conditions noted are these: for IC50: Leishmania amazonensis. The protocol:
Leishmania amazonensis promastigotes expressing beta-lactamase (Buckner et al., Am. J. Trop. Med. Hyg. 72 (2005) 600-605. doi:72/5/600 [pii]) were cultured in RPMI supplemented with 10% fetal calf serum and 1% pen-strep-glut solution (Sigma) at 27° C. Stationary phase promastigotes were adjusted in fresh media, treated with compounds, and incubated at 37° C. At 24 hours, 100 uL of cultures was added to 50 uL of the CellTiter Glo® solution. Luminescence readings were taken with a spectrophotometer and used to calculate inhibition.

The mark [5] stands for this setting: read-out: IC50 T. cruzi, Table 1, intracellular assay, mean of 2(+) trials (^c one trial).
Setting [6] is: read-out: IC50 T. cruzi, Table 2, intracellular assay, mean of 2(+) independent trials.
[7] abbreviates: read-out: IC50 TC-I, Table 3B, weighted means of two or more independent trials.
[8] abbreviates: Rattus norvegicus, Table 1, read-out: IC50 Toxicity (L6).
[9] abbreviates: Rattus norvegicus, Table 3B, weighted means of two or more independent trials, read-out: IC50 L6.
Where [10] appears, read: Trypanosoma brucei, Table 1, mean of 2(+) independent trials, read-out: IC50 T. brucei.
Where [11] appears, read: Trypanosoma brucei, read-out: T. brucei IC50 dose.
The mark [12] stands for this setting: Table 1, intracellular T. cruzi IC50.
Setting [13] is: Table 2, L6 IC50 / T. cruzi IC50 (intracellular assay).
The mark [14] stands for this setting: estimated from highest L6 dose tested where no L6 IC50.
Setting [15] is: read-out: IC50 TC-I, Table 3A, weighted means of two or more independent trials.
[16] abbreviates: Rattus norvegicus, Table 3A, weighted means of two or more independent trials, read-out: IC50 L6.
The mark [17] stands for this setting: Table 2, L6 mammalian cells, read-out: IC50 Toxicity (L6).
The mark [18] stands for this setting: Table 2, L6 IC50 / L. amazonensis IC50.
Setting [19] is: Table 2, L6 IC50 / T. brucei IC50.
The mark [20] stands for this setting: Table 3A, estimated from highest L6 dose tested where no L6 IC50.
[21] abbreviates: Table 3B, estimated from highest L6 dose tested where no L6 IC50.

Values joined by “and” are separate entries in the source; they are usually repeats but may differ in a detail not shown here. Equal entries are not always repeated. Where two headings read alike, the source gives them in different places.

One may read the IC50 as the point on the concentration scale where inhibition reaches its midpoint. On to `O=C1/C(=C/c2ncc[nH]2)Oc2ccccc21` [Aurone 2026, (Z)-2-((1H-imidazol-2-yl)methylene)benzofuran-3(2H)-one], for which the IC50 in assay [1] (setting [5]) is 20.9 µM; in assay [1] (setting [6]) it was 20.9 µM; in assay [1] (setting [7]), 20.9 µM; in assay [2] (setting [8]), > 100 µM; in assay [2] (setting [9]), > 100 µM; in assay [3] (setting [10]), 16.1 µM. Besides, the IC50 was 16.1 µM in assay [3] (setting [11]) and < 1 µM in assay [4] (read-out: IC50 L. amaz.). Besides, in assay [3], the “selectivity for T. brucei (L6/Tb)” value was > 6.22.

With `COc1ccc(/C=C2\Oc3ccccc3C2=O)cc1OC` [Aurone 2011], the IC50 in assay [1] (setting [5]) came out at 21.9 µM; in assay [1] (setting [6]), 21.9 µM; in assay [2] (setting [8]) it was 51.9 µM; in assay [3] (setting [10]) it was 22.9 µM; in assay [4] (read-out: IC50 L. amaz.) it was 1.01 µM.

Consider `O=C1/C(=C/c2cccc([N+](=O)[O-])c2)Oc2ccccc21` [Aurone 12a], for which, in assay [1], the “activity against T. cruzi” value is recorded as “modest activity”. Also, the “activity against T. brucei” value in assay [3] is “modest activity”.

Take `O=C1/C(=C/c2cccc(Br)c2)Oc2ccccc21` [Aurone 9030, (Z)-2-(3-bromobenzylidene)benzofuran-3(2H)-one]: the “Selectivity L6/Tc” value in assay [1] (setting [12]) and in assay [1] (setting [13]) was >13.61 in each case. Further, the “Selectivity L6/TC-I” value in assay [1] (setting [14]) is on record as >13.61. The IC50 in assay [1] (setting [5]) is 7.35 µM; in assay [1] (setting [6]), 7.35 µM; in assay [1] (setting [15]) it was 7.35 µM; in assay [2] (setting [8]), > 100 µM; in assay [2] (setting [16]) it was > 100 µM; in assay [2] (setting [17]) it was > 100 µM. Further, the IC50 in assay [3] (Table 2, mean of 2(+) independent trials, read-out: IC50 T. brucei) was > 50 µM; in assay [3] (setting [10]), > 50 µM; in assay [4] (read-out: IC50 L. amaz.), < 1 µM; in assay [4] (read-out: IC50 L. amaz. (footnote c: value obtained from one trial)) it was < 1 µM. Also, the “Selectivity L6/La” value in assay [4] (Table 1) and in assay [4] (setting [18]) was >100 each time.

Regarding `O=C1/C(=C/c2ccc[nH]2)Nc2ccccc21` [AA5], the IC50 in assay [1] (setting [5]) was determined as 27.8 µM; in assay [2] (setting [8]), 39.7 µM; in assay [3] (setting [10]), 49.3 µM.

As for `O=C1/C(=C/c2ccc(Br)cc2)Oc2cc(O)ccc21` [Aurone 2905, (Z)-2-(4-bromobenzylidene)-6-hydroxybenzofuran-3(2H)-one], the IC50 in assay [1] (setting [5]) was > 50 µM; in assay [2] (setting [8]), > 100 µM; in assay [3] (setting [10]), > 50 µM; in assay [4] (read-out: IC50 L. amaz.), 39 µM.

For the molecule `O=C1/C(=C/c2ccc(C(F)(F)F)cc2)Oc2ccccc21` [Aurone 6c, (Z)-2-(4-(trifluoromethyl)benzylidene)benzofuran-3(2H)-one], in assay [1] (read-out: T. cruzi IC50 dose), the IC50 was < 10 µM.

Consider `O=C1/C(=C/c2ccc(Cl)cc2)Oc2ccccc21` [Aurone 9019, (Z)-2-(4-chlorobenzylidene)benzofuran-3(2H)-one], for which the “Selectivity L6/Tc” value in assay [1] (setting [12]) and in assay [1] (setting [13]) was >18.08 in each case. Moreover, the “Selectivity L6/TC-I” value in assay [1] (setting [14]) is reported as >18.08. Moreover, the IC50 is 5.53 µM in assay [1] (setting [5]); 5.53 µM in assay [1] (setting [6]); 5.53 µM in assay [1] (setting [15]); > 100 µM in assay [2] (setting [8]); > 100 µM in assay [2] (setting [16]); > 100 µM in assay [2] (setting [17]). For the same molecule, the IC50 in assay [3] (setting [10]) amounted to 34.7 µM; in assay [4] (read-out: IC50 L. amaz.), 41.5 µM. Also, the “Selectivity L6/Tb” value in assay [3] (Table 1), in assay [3] (setting [19]) and in assay [3] (setting [20]) was >2.88 throughout. For the same molecule, the “Selectivity L6/La” value in assay [4] (Table 1) and in assay [4] (setting [18]) was >2.41 throughout.

Take `COc1ccc(/C=C2\Oc3ccccc3C2=O)cc1` [Aurone 6601, (Z)-2-(4-methoxybenzylidene)benzofuran-3(2H)-one]: the “Selectivity L6/Tc” value in assay [1] (setting [12]) and in assay [1] (setting [13]) was >9.28 each time. Moreover, the “Selectivity L6/TC-I” value in assay [1] (setting [14]) is >9.28. Also, the 50% inhibitory concentration (IC50) in assay [1] (setting [5]) was 10.8 µM; in assay [1] (setting [6]), 10.8 µM; in assay [1] (setting [15]) it was 10.8 µM; in assay [2] (setting [8]) it was > 100 µM; in assay [2] (setting [16]) it was > 100 µM; in assay [2] (setting [17]) it was > 100 µM. Further, the IC50 worked out at 40.3 µM in assay [3] (setting [10]) and 3.3 µM in assay [4] (read-out: IC50 L. amaz.). The “Selectivity L6/Tb” value in assay [3] (Table 1), in assay [3] (setting [19]) and in assay [3] (setting [20]) was >2.48 in each case. In addition, the “Selectivity L6/La” value in assay [4] (Table 1) and in assay [4] (setting [18]) was >30.30 each time.

As for `COc1ccc(/C=C2\Oc3cc(O)ccc3C2=O)c(OC)c1OC` [Aurone 2912, (Z)-6-hydroxy-2-(2,3,4-trimethoxybenzylidene)benzofuran-3(2H)-one], the IC50 is > 50 µM in assay [1] (setting [5]), > 100 µM in assay [2] (setting [8]), > 50 µM in assay [3] (setting [10]) and 25.7 µM in assay [4] (read-out: IC50 L. amaz.).

In the case of `N#Cc1ccccc1/C=C1\Oc2ccccc2C1=O` [Aurone 3007, (Z)-2-((3-oxobenzofuran-2(3H)-ylidene)methyl)benzonitrile], the “Selectivity L6/Tc” value in assay [1] (setting [12]) was >2.14. Further, in assay [1] (setting [14]), the “Selectivity L6/TC-I” value is on record as >2.14. Besides, the IC50 in assay [1] (setting [5]) is 46.6 µM; in assay [1] (setting [15]), 46.6 µM; in assay [2] (setting [8]), > 100 µM; in assay [2] (setting [16]), > 100 µM; in assay [3] (setting [10]), > 50 µM; in assay [4] (read-out: IC50 L. amaz.), 17.6 µM. Moreover, the “Selectivity L6/La” value in assay [4] (Table 1) was >5.69.

On to `COC(=O)c1ccc(/C=C2\Oc3ccccc3C2=O)cc1` [Aurone 13, Methyl (Z)-4-((3-oxobenzofuran-2(3H)-ylidene)methyl)benzoate], for which the “activity against T. cruzi” value in assay [1] is listed as “no activity”. In assay [3], the “activity against T. brucei” value is given as “no activity”.

As to `O=C1/C(=C/c2ccc(Cl)cc2)Oc2ccccc21` [Aurone 3c, (Z)-2-(4-chlorobenzylidene)benzofuran-3(2H)-one], in assay [1] (read-out: T. cruzi IC50 dose), the IC50 is < 10 µM.

With `N#Cc1ccc(/C=C2\Oc3ccccc3C2=O)cc1` [Aurone 7c], in assay [3], the “selectivity for T. brucei (L6/Tb)” value was 29.49 and 29.46. The IC50 in assay [3] (setting [11]) turned out to be 8.12 µM.

For the molecule `O=C1/C(=C/c2cccc(Br)n2)Oc2ccccc21` [Aurone 9260, (Z)-2-((6-bromopyridin-2-yl)methylene)benzofuran-3(2H)-one], in assay [1] (setting [12]), the “Selectivity L6/Tc” value was >6.87. In assay [1] (setting [21]), the “Selectivity L6/Tc-I” value is >6.87. Moreover, the IC50 was 14.6 µM in assay [1] (setting [5]); 14.6 µM in assay [1] (setting [7]); > 100 µM in assay [2] (setting [8]); > 100 µM in assay [2] (setting [9]); 43.6 µM in assay [3] (setting [10]); 43.6 µM in assay [3] (setting [11]). In addition, the “Selectivity L6/Tb” value is on record as >2.29 in assay [3] (Table 1) and >4.96 in assay [3] (setting [21]).

On to `COc1cc(OC)c2c(c1)O/C(=C\c1ccc(C)cc1)C2=O` [Aurone 7000], for which the IC50 in assay [1] (setting [5]) was 7.92 µM; in assay [1] (setting [6]) it was 7.92 µM; in assay [2] (setting [8]), 142 µM; in assay [3] (setting [10]) it was 23.2 µM.

Turning to `O=C1/C(=C/c2cccc(I)c2)Oc2ccccc21` [Aurone 4b, (Z)-2-(3-iodobenzylidene)benzofuran-3(2H)-one], the IC50 is < 10 µM in assay [1] (read-out: T. cruzi IC50 dose) and > 50 µM in assay [3] (setting [11]).

Regarding `O=C1/C(=C/c2cccc(O)c2)Oc2ccccc21` [Sample 9252], the values for the IC50 in assay [1] (setting [15]) and in assay [2] (setting [16]) were 16.5 µM and > 100 µM, respectively.

For `O=C1/C(=C/c2cccc(Br)c2)Oc2ccccc21` [Aurone 5b, (Z)-2-(3-bromobenzylidene)benzofuran-3(2H)-one], the half-inhibitory concentration (IC50) is < 10 µM in assay [1] (read-out: T. cruzi IC50 dose) and > 50 µM in assay [3] (setting [11]).

`O=C1/C(=C/c2ccc([N+](=O)[O-])cc2)Oc2ccccc21` [Aurone 12b]: in assay [1], the “activity against T. cruzi” value was “modest activity”. Further, the “activity against T. brucei” value in assay [3] was “modest activity”.

Consider `O=C1/C(=C/c2ccccc2Cl)Oc2ccccc21` [Aurone 3a, (Z)-2-(2-chlorobenzylidene)benzofuran-3(2H)-one], for which, in assay [3], the “selectivity for T. brucei (L6/Tb)” value stood at 21.02. Besides, in assay [3] (setting [11]), the IC50 stood at 11.3 µM.
